Entries after “also recorded” stand apart in the source; their conditions may differ.
Tests used:
GABAA α5 receptor = molecular target: T1, GABAA α5 receptor (Rattus norvegicus, UniProt P18508+P19969); test: GABAA α5 receptor occupancy with Ro 15-4513 tracer (hippocampus vs cerebellum); format: in vivo; conditions: i.v.
T1 construct: from tissue; host or cells: rat brain in vivo; hippocampus versus cerebellum
Description: Food and water were available ad libitum.

aged-impaired (AI) rats = test: Radial Arm Maze (RAM) behavioral task, spatial memory retention; format: in vivo, rat; conditions: four-hour delay
Procedure: The effects of methyl 3,5-diphenylpyridazine-4-carboxylate on the in vivo spatial memory retention of aged-impaired (AI) rats were assessed in a Radial Arm Maze (RAM) behavioral task using vehicle control and four different dosage levels of methyl 3,5-diphenylpyridazine-4-carboxylate (0.1 mg/kg, 0.3 mg/kg, 1 mg/kg and 3 mg/kg, ip). RAM behavioral tasks were performed on eight AI rats. All five treatment conditions (vehicle and four dosage levels) were tested on all eight rats.
The RAM apparatus used consisted of eight equidistantly-spaced arms. An elevated maze arm (7 cm width×75 cm length) projected from each facet of an octagonal center platform (30 cm diameter, 51.5 cm height). Clear side walls on the arms were 10 cm high and were angled at 65° to form a trough. A food well (4 cm diameter, 2 cm deep) was located at the distal end of each arm. Froot Loops™ (Kellogg Company) were used as rewards. Blocks constructed of Plexiglas™ (30 cm height×12 cm width) could be positioned to prevent entry to any arm. Numerous extra maze cues surrounding the apparatus were also provided.
The AI rats were initially subjected to a pre-training test (Chappell et al. Neuropharmacology 37: 481-487, 1998). The pre-training test consisted of a habituation phase (4 days), a training phase on the standard win-shift task (18 days) and another training phase (14 days) in which a brief delay was imposed between presentation of a subset of arms designated by the experimenter (e.g., 5 arms available and 3 arms blocked) and completion of the eight-arm win-shift task (i.e., with all eight arms available).
In the habituation phase, rats were familiarized to the maze for an 8-minute session on four consecutive days. In each of these sessions, food rewards were scattered on the RAM, initially on the center platform and arms and then progressively confined to the arms. After this habituation phase, a standard training protocol was used, in which a food pellet was located at the end of each arm. Rats received one trial each day for 18 days. Each daily trial terminated when all eight food pellets had been obtained or when either 16 choices were made or 15 minutes had elapsed. After completion of this training phase, a second training phase was carried out in which the memory demand was increased by imposing a brief delay during the trial. At the beginning of each trial, three arms of the eight-arm maze were blocked. Rats were allowed to obtain food on the five arms to which access was permitted during this initial “information phase” of the trial. Rats were then removed from the maze for 60 seconds, during which time the barriers on the maze were removed, thus allowing access to all eight arms. […]

α5β2γ2 subtype GABAAR = molecular target: T2, α5β2γ2 subtype GABAAR (Homo sapiens, UniProt P18507+P31644); test: Positive allosteric modulator activity: potentiation of EC20 GABA current in oocytes; format: cell-based; conditions: read-out: GABA α5 Functional Data (potentiation), @ 100 nM, reported as ranges
T2 construct: expressed in transfected cells
T2 sequence (P31644 32-462): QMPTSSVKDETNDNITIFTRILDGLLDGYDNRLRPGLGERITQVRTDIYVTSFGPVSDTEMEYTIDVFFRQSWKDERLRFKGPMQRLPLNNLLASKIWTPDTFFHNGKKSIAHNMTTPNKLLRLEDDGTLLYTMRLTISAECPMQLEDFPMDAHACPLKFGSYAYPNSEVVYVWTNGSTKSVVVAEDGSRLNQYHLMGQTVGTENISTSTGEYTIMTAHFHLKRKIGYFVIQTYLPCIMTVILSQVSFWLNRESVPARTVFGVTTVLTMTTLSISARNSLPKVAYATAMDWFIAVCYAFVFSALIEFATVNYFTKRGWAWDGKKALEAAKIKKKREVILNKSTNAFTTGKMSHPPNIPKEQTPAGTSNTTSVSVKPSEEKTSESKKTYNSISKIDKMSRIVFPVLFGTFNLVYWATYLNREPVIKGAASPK
T2 sequence (P47870 25-512 partner limits assumed): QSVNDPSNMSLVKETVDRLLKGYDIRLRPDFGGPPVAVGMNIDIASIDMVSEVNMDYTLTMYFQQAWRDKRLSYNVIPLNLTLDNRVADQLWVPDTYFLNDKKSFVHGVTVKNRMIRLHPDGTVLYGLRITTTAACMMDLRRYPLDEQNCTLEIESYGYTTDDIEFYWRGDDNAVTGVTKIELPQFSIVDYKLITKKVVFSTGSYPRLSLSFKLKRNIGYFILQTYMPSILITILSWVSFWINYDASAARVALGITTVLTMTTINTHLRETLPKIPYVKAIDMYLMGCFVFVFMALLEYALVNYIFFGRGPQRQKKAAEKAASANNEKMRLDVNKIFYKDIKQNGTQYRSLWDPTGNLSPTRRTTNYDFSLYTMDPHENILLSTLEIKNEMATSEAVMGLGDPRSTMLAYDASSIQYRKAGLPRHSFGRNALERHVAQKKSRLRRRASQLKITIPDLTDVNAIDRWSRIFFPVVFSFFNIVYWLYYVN
T2 sequence (P18507 40-467 limits assumed): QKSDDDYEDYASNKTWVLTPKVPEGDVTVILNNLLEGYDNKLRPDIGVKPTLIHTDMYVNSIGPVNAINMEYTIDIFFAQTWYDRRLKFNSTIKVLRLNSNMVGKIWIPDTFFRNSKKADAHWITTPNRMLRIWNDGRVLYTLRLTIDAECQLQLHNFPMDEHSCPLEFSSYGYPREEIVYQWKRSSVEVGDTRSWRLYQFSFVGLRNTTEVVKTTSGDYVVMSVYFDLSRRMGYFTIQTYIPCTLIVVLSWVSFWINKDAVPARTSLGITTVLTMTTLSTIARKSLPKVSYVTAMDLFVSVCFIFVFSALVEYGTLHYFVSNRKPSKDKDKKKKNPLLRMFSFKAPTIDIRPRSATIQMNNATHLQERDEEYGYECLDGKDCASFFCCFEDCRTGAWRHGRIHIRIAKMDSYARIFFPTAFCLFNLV
Method in brief: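 Xenopus oocytes injected with 1 ng α5:β2:γ2 cDNA (1:1:10 by weight) and recorded on day 2 by two-electrode voltage clamp under MBS superfusion. Potentiation (%) = Itest/IGABA at EC20 GABA; each oocyte used for one concentration only.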

T1 sequence (P19969 32-464 limits assumed): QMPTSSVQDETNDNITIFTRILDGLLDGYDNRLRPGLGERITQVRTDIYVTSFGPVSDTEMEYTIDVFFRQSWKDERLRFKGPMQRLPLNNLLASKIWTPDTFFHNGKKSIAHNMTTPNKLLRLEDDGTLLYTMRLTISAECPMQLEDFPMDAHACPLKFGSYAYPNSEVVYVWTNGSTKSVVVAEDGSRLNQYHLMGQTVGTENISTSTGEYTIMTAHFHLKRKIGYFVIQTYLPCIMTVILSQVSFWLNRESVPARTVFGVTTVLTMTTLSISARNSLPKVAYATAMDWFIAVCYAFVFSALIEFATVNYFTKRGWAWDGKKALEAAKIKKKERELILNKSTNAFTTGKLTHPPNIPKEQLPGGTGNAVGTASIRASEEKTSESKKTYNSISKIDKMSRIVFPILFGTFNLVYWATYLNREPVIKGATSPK
T1 sequence (P18508 39-466): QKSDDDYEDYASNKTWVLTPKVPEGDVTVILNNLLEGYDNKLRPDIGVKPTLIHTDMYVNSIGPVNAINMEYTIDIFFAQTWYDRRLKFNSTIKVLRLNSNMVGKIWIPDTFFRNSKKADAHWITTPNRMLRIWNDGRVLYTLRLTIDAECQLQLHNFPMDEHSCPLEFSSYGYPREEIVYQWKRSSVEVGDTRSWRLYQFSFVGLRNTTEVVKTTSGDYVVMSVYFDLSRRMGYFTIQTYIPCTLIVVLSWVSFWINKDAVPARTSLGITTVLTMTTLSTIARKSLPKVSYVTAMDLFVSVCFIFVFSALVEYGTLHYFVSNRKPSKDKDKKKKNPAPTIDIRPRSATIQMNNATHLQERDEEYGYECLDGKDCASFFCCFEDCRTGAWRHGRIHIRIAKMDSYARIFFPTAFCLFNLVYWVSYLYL

Structure (SMILES) | activation at 0.1 µM (α5β2γ2 subtype GABAAR) | other results
CCOC(=O)c1ncn2c1Cn1c(C)nnc1-c1cc(OC)ccc1-2 |  | effect on Ro 15-4513 binding in hippocampus (GABAA α5 receptor; 0.01-10 mg/kg): reduced; also recorded: blocked; effect on Ro 15-4513 levels (binding) in cerebellum (GABAA α5 receptor; 0.01-10 mg/kg): without affecting; also recorded: did not affect; GABAA α5 receptor occupancy (GABAA α5 receptor; 10 mg/kg): > 90%; memory performance relative to vehicle control (aged-impaired (AI) rats; 3 mg/kg, t(7)=4.13, p=0.004, or t(7)=3.08, p=0.018): significantly improved memory performance; memory performance relative to vehicle control (aged-impaired (AI) rats; 10 mg/kg, p 0.026): significantly improved memory performance
Fc1ccccc1[C@H]1COC(c2ncn3c2Cc2cnnn2-c2cc(Cl)ccc2-3)=N1 [Compound 360] | 20 to 50% | 
Clc1ccc([C@H]2COC(c3ncn4c3Cc3cnnn3-c3cc(Cl)ccc3-4)=N2)cc1 [Compound 361] | 20 to 50% | 
FC(F)(F)c1ccc([C@H]2COC(c3ncn4c3Cc3cnnn3-c3cc(Cl)ccc3-4)=N2)cc1 [Compound 362] | 20 to 50% | 
COc1ccc2c(c1)-n1nncc1Cc1c(C3=N[C@@H](c4ccc(F)cc4)CO3)ncn1-2 [Compound 367] | 5 to 20% | 
COc1ccc2c(c1)-n1nncc1Cc1c(C3=N[C@@H](c4ccc(Cl)cc4)CO3)ncn1-2 [Compound 368] | 5 to 20% | 
CC(C)c1coc(-c2ncn3c2Cc2cnnn2-c2cc(Cl)ccc2-3)n1 [Compound 387] | 20 to 50% | 
Clc1ccc2c(c1)-n1nncc1Cc1c(C#Cc3ccccc3)ncn1-2 [Compound 395] | 5 to 20% | 
Cc1ccccc1C#Cc1ncn2c1Cc1cnnn1-c1cc(Cl)ccc1-2 [Compound 396] | 5 to 20% | 
COc1ccc(C#Cc2ncn3c2Cc2cnnn2-c2cc(Cl)ccc2-3)cc1 [Compound 397] | 20 to 50% | 
FC(F)(F)CC#Cc1ncn2c1Cc1cnnn1-c1cc(Cl)ccc1-2 [Compound 398] | 20 to 50% | 
FC(F)(F)c1ccc(C#Cc2ncn3c2Cc2cnnn2-c2cc(Cl)ccc2-3)cc1 [Compound 400] | 20 to 50% | 
Clc1ccc2c(c1)-n1nncc1Cc1c(C#Cc3ccccn3)ncn1-2 [Compound 401] | 5 to 20% | 
Clc1ccc2c(c1)-n1nncc1Cc1c(C#Cc3cccnc3)ncn1-2 [Compound 402] | 20 to 50% | 
COc1ccc2c(c1)-n1nncc1Cc1c(C#Cc3ccccc3)ncn1-2 [Compound 404] | 5 to 20% | 
COc1ccc2c(c1)-n1nncc1Cc1c(C#Cc3ccccc3C)ncn1-2 [Compound 405] | 5 to 20% | 

Structure (SMILES) | activation at 0.1 µM (α5β2γ2 subtype GABAAR) | other results
COc1ccc2c(c1)-n1nncc1Cc1c(C#Cc3ccc(C(F)(F)F)cc3)ncn1-2 [Compound 406] | 20 to 50% | 
COc1ccc2c(c1)-n1nncc1Cc1c(C#Cc3cccnc3)ncn1-2 [Compound 407] | 5 to 20% | 
COc1ccc2c(c1)-n1nncc1Cc1c(C#Cc3ccccn3)ncn1-2 [Compound 408] | 5 to 20% | 
COc1cccc(C#Cc2ncn3c2Cc2cnnn2-c2cc(OC)ccc2-3)c1 [Compound 409] | 5 to 20% | 
COc1ccc2c(c1)-n1nncc1Cc1c(C#CCc3ccccc3)ncn1-2 [Compound 413] | 5 to 20% | 
COc1ccc(C#Cc2ncn3c2Cc2cnnn2-c2cc(OC)ccc2-3)cc1 [Compound 414] | 20 to 50% | 
CC(C)C#Cc1ncn2c1Cc1cnnn1-c1cc(Cl)ccc1-2 [Compound 415] | 20 to 50% | 
COc1ccc2c(c1)-n1nncc1Cc1c(C#CCc3cccc(Cl)c3)ncn1-2 [Compound 417] | 5 to 20% | 
COc1ccc2c(c1)-n1nncc1Cc1c(C#CCc3cccc(OC(F)(F)F)c3)ncn1-2 [Compound 418] | 20 to 50% | 
COc1ccc2c(c1)-n1nncc1Cc1c(C#CCc3cccc(F)c3)ncn1-2 [Compound 419] | 20 to 50% | 
COc1ccc2c(c1)-n1nncc1Cc1c(C#CCc3ccccc3OC(F)(F)F)ncn1-2 [Compound 420] | 5 to 20% | 
COCc1nnc2n1Cc1c(C#CCc3cccc(F)c3)ncn1-c1ccc(Cl)cc1-2 [Compound 421] | 20 to 50% | 
COCc1nnc2n1Cc1c(C#CCc3cccc(Cl)c3)ncn1-c1ccc(Cl)cc1-2 [Compound 422] | 20 to 50% | 
COCc1nnc2n1Cc1c(C#CCc3cccc(OC(F)(F)F)c3)ncn1-c1ccc(Cl)cc1-2 [Compound 423] | 5 to 20% | 
CC(C)C#Cc1ccc2c(c1)-n1nncc1Cc1c(Br)ncn1-2 [Compound 454] | 5 to 20% | 
CCOC(=O)c1ncn2c1CN(C)C(=O)c1cc(N=[N+]=[N-])ccc1-2 [Ro 15-4513] |  | levels of Ro 15-4513 in hippocampus compared with cerebellum (GABAA α5 receptor; tracer 1 μg/kg, after vehicle administration): > 5 fold
